Measurements: patent US12472208B2 (priority 2013, dated 2025)

Tests used:
DNA = conditions: cited from earlier work
[1] = test system: bronchitis, colds, or flu; conditions: in vivo
[2] = test system: illness spreading through the player population; conditions: over 300 players, 2014 training period, about 4 hours per day, PHPG about 0.3 ppm; historically two to five players miss three to four days per week
[3] = test system: cold, flu, or other respiratory illness; conditions: in vivo

For `N#CSO` [OSCN−, hypothiocyanate], which mutagenicity / safety (DNA) is on record?
Its mutagenicity / safety is “non-mutagenic”.

With `OO` [PHPG, hydrogen peroxide] as the molecule, how does the “occurrence of bronchitis, colds, or flu” value [1] read?
Its value is “did not suffer bronchitis, colds, or flu”.

What about the “players missing training days due to illness during spring training” value [2] of the same molecule?
Its value is “only one player missed one training day due to illness”.

And the “subjects contracting cold, flu, or other respiratory illness” value [3]?
Its value is “none of the subjects contracted cold, flu, or other respiratory illness”.

What about the “adverse effects of exposure” value (subject; continuous exposure) of the same molecule?
Its value is “no adverse effects”.

What about the toxicity (subject; levels up to 7 ppm) of the same molecule?
The toxicity was “non-toxic”.
